Measurements published in US6696407B1, “Huntington's disease treatment comprising administering aldose reductase inhibitors to increase striatal CNTF” (The Regents of the University of California, priority 1997, dated 2004).
Marks after values point to notes of the source that are not given here.

How the values were obtained:
Assay type in all cases: in vivo, rat
myelinated fibers = assay: Axonal size-frequency distribution of myelinated fibers in sciatic nerve; details: galactose-fed rats
Method: (§1) These studies were conducted with the approval of the San Diego Veterans Administration Animal Studies Subcommittee. Female Sprague-Dawley rats (240-300 g; Charles River, San Diego, Calif.) were housed in cages with wire bottoms to reduce contact with urine and feces. Groups were established and fed either a 40% D-galactose diet or a control diet specially formulated by Purina that contained 40% solka floc, a nonnutritive fiber, to balance nutritional intake. All diets contained 100% of the micronutrients required by rats and, with water, were available ad libitum. Each of these diet groups contained animals that were treated with the ARI, Ponalrestat (50 mg/kg), daily by oral gavage. After two months, rats were anesthetized by intraperitoneal injection (1 ml/kg ip) of pentobarbital sodium (12.5 mg/ml) and diazepam (1.25 mg/ml) in bacteriostatic saline. Under deep anesthesia, motor nerve conduction velocity (MNCV) was measured in the left hindlimb prior to removal of the sciatic nerve. The proximal portion was processed for subsequent light microscopic examination and the distal portion used for gas chromatographic analysis of nerve polyols. The contralateral sciatic nerve was removed and used for assay of CNTF-like neurotrophic activity and either Northern blot or ELISA analysis of CNTF mRNA or protein, respectively.
For light microscopic examination, proximal portions of sciatic nerve were fixed in 2.5% phosphate-buffered glutaraldehyde (490 mosmol/kg H2O). Tissue was then postfixed in 1% aqueous osmium tetroxide for 3 to 4 hours before dehydration using a series of graded alcohols and propylene oxide. […]
In each animal, computer-assisted analysis of the axonal size-frequency distributions of myelinated fibers was performed on a single thick section sampled from the tibial fascicle midway between the sciatic notch and popliteal fossa as described in detail previously by Forcier et al. (1991) J. Neuropathol. […] Briefly, video images (Cohu, San Diego, Calif.) of the tibial fascicle obtained with an Olympus light microscope were analyzed using a VAXstation II/GPX processor (Digital Equipment Corp., Boston, Mass.) with data translation imaging hardware (DT 2651, Data Translation, Marlboro, Mass.) for digitization of single video frames and an image processing board (DT2658) for mathematical operations. […]
Two months of galactose feeding was associated with a shift in the axonal size-frequency distribution of myelinated fibers towards those with smaller diameter axons (FIG. 4). […] Data are presented as the mean ±SD (N=8 to 10 per group) and were analyzed with a one way ANOVA after which multiple comparisons were made with the Student-Newman-Keuls test. […]

aldose reductase = assay: Sciatic nerve polyol content by gas chromatography
Method: as §1
For determination of water content and dry weight, distal segments of sciatic nerve were lightly blotted, weighed prior to freeze-drying and reweighed. Nerve polyols were measured by gas chromatography with α-methylmannoside as an internal standard (Mizisin et al., (1993) J. Neurol. Sci. 116:67-72) using a Hewlett Packard 5890 gas chromatograph (Hewlett Packard, Avondale, Pa.) fitted with a flame ionization detector and a 25 m×0.2 mm capillary column (Hewlett Packard Ultra 1). Nerve water and polyol contents are expressed as mg and nmol per mg nerve dry weight, respectively.
Data are presented as mean ±SD (N=8 to 10) and were analyzed with a one way ANOVA after which multiple comparisons were made with the Student-Newman-Keuls test. Mean dulcitol levels were compared with an unpaired, two-tailed t test. Control and animals received a diet containing 0% D-galactose and galactose animals a diet containing 40% D-galactose for two months.

CNTF = assay: Sciatic nerve CNTF protein by ELISA; details: P<0.05
Method: as §1, with “The proximal portion was processed for subsequent light microscopic examination and the distal portion used for gas chromatographic analysis of nerve polyols. The contralateral sciatic nerve was removed and used for assay of CNTF-like neurotrophic activity and either Northern blot or ELISA analysis of CNTF mRNA or protein, respectively.” left out
CNTF protein was determined with an ELISA that utilizes a monoclonal capture antibody which recognizes a non-C-terminal epitope on both rat and human CNTF (Regeneron, Tarrytown, N.Y.). […] The reaction was stopped with 0.5 N H2SO4 and the plates read at two wavelengths (490 nm and 650 nm).

[1] = sciatic nerve, 40% D-galactose diet rats, Ponalrestat 50 mg/kg daily oral, two months

SMILES: O=C(O)Cc1nn(Cc2ccc(Br)cc2F)c(=O)c2ccccc12 [Ponalrestat, 3-(4-bromo-2-fluorobenzyl)-4-oxo-3H-phthalazin-1-ylacetic acid]
- Relative number, Medium myelinated axons (myelinated fibers; diameter >3 μm but <7 μm, Ponalrestat 50 mg/kg daily oral, two months): 45.2 ± 5.0^a %
- Relative number, Small myelinated axons (myelinated fibers; diameter ≦3 μm, Ponalrestat 50 mg/kg daily oral, two months): 17.7 ± 4.9%
- Relative number, Large myelinated axons (myelinated fibers; diameter ≧7 μm, Ponalrestat 50 mg/kg daily oral, two months): 37.1 ± 6.7^a %
- Changes in axonal caliber (myelinated fibers): prevented
- Dulcitol accumulation (in words) (aldose reductase; galactose-fed rats): attenuated
- Nerve myo-inositol content (in words) (aldose reductase; galactose-fed rats): restored
- Dulcitol (aldose reductase; [1]): 12.2 ± 3.8 nmol/mg dry wt
- myo-Inositol (aldose reductase; [1]): 9.4 ± 1.9^a nmol/mg dry wt
- myo-Inositol (aldose reductase; sciatic nerve, control diet rats, Ponalrestat 50 mg/kg daily oral, two months): 12.3 ± 1.5^b nmol/mg dry wt
- Increase of CNTF detected by ELISA relative to untreated control rats (CNTF; control animals): 50%
- Increase of CNTF detected by ELISA relative to untreated control rats (CNTF; galactose-fed animals): 50%
